The test system of the assay is Plasmodium falciparum. Briefly: GSK_TCMDC: Inhibition of Plasmodium falciparum 3D7 in whole erythrocytes, using parasite LDH activity as an index of growth. It counts as functional, organism-based.

For `COc1cc(N(C)Cc2cnc3nc(N)nc(N)c3n2)cc(OC)c1OC`, for the setting “Plasmodium falciparum, 3D7”, the XC50 was determined as 435 nM. Still for that read-out and setting: under `COC(=O)c1c(C#N)c(OC)cc(O)c1CSC[C@@H](CN1CCCCC1)Nc1nc(-c2ccc([N+](=O)[O-])cc2)cs1` stands 1270 nM; under `Cc1noc(-c2ccc(NC[C@@H](C)NC[C@H](O)c3cccc(Cl)c3)cc2)n1`, 756 nM. With `CC(C)(CNCc1cc(Cl)cc(Cl)c1)c1nc(-c2ccnc(N)n2)c(-c2ccc(Cl)c(O)c2)[nH]1`, the XC50 (Plasmodium falciparum, 3D7) turned out to be 1010 nM.

As for `O=C(C1CCCC1)N1CCOC(CCN2CCC(c3ccccc3)CC2)(c2ccc(Cl)c(Cl)c2)C1` (centres undefined), under “Plasmodium falciparum, 3D7”, the XC50 was found to be 937 nM. The same measure, in the same setting: as for `NCCNc1ccnc2cc(Cl)ccc12`, the figure is 125 nM; as for `CCc1cn2c3c(cc(C(=O)N[C@@H](Cc4ccccc4)[C@H](O)CNCc4ccc(C)cc4)cc13)N(C)S(=O)(=O)CC2`, 547 nM. Same read-out and setting: under `Cc1nc2nc(N)nc(N)c2c(C)c1Cc1cccs1` stands 777 nM. The molecule `O=C(NCCCN1CCOCC1)c1csc(Nc2ccc(Cl)c(Cl)c2)n1` showed an XC50 (Plasmodium falciparum, 3D7) of 919 nM. For the setting “Plasmodium falciparum, 3D7”, `CCC(C)CN1CCC(N(C)c2cc(NC(=O)c3cccc(C)c3)ccn2)CC1` (centres undefined) gave an XC50 of 937 nM. Still for that read-out and setting: as for `CCN1CCC(N2CCC(n3c(C)nc4cc(C(F)(F)F)ccc43)CC2)CC1`, the figure is 1020 nM; as for `CC(C)(C)c1ccc(NC(=O)c2ccc(CN3CCCN(Cc4ccc(F)cc4)CC3)cc2)cc1`, 1110 nM. On the same count and under the same terms, as for `O=c1nc(NCCCCCN2CCC(c3c[nH]c4ccccc34)CC2)[nH]cc1Cc1ccc(Cl)c(Cl)c1`, the figure is 969 nM; as for `N#Cc1ccc2c(c1)CCN(CCC1CCC(Nc3ncnc4ccccc34)CC1)C2` (centres undefined), 635 nM.

For the setting “Plasmodium falciparum, 3D7”, `O=C(Nc1ccc(OC2CCN(Cc3ccc(F)cc3)C2)c(Cl)c1)c1ccoc1` (centres undefined) displayed an XC50 of 938 nM. The same measure, in the same setting: as for `CCN(CC)c1ccc2nc(N)nc(N)c2c1`, the figure is 73.9 nM; as for `COc1ccc2nc(-c3cc(-c4ccc(NC(C)=O)cc4)cnc3N)[nH]c2c1`, 1240 nM; as for `COc1cc2ccccc2cc1CCNCCCCNCCc1cc2ccccc2cc1OC`, 403 nM. In turn, `CC(C)(C)c1ccc(NC(=O)c2ccc(CN3CCCN(Cc4cccc(Cl)c4)CC3)cc2)cc1` showed an XC50 (Plasmodium falciparum, 3D7) of 972 nM.

`Cc1cccc2nc(-c3ccc(-c4cccc(NC(=O)NCc5cccc(F)c5)c4)cc3)[nH]c12`: for the setting “Plasmodium falciparum, 3D7”, the XC50 was determined as 853 nM.

The molecule `CCCCCCCC1=NN2C(=N)C(=Cc3cc(Br)c(OCc4ccc(F)cc4)c(OCC)c3)C(=O)N=C2S1` yielded an XC50 (Plasmodium falciparum, 3D7) of 1050 nM. Under “Plasmodium falciparum, 3D7”, `CNC(=O)c1cnc(Nc2ccc(N3CCN(C)CC3)cc2)nc1Nc1cccc([N+](=O)[O-])c1` returned an XC50 of 288 nM. For the molecule `COc1cc(OC)c(OC)cc1C=NN=c1cc(C)[nH]c2ccccc12`, for the setting “Plasmodium falciparum, 3D7”, the XC50 worked out at 299 nM. Same read-out and setting: as for `Cc1[nH]c(C)c(-c2ccc(-c3ccccc3Cl)nc2)c(=O)c1Br`, the figure is 171 nM; as for `CC(C)c1sc(N2CCCCC2)nc1C(=O)Nc1ccc(F)cc1C(F)(F)F`, 239 nM; as for `COc1ccc(O)c(C(=O)c2cc(C#N)c(=O)n(-c3ccc(Oc4ccccc4)cc3)c2)c1`, 737 nM. Same read-out and setting: as for `Cc1[nH]c2ccc(O)cc2c1C1CCN(CC2CCN(C(=O)/C=C/c3ccc(Cl)c(Cl)c3)CC2)CC1`, the figure is 998 nM. Still for that read-out and setting: under `Cc1nc(N)nc(N)c1CCCOc1cccc(Cl)c1` stands 476 nM; under `N#Cc1cncc(-c2nc3c(N4CCC(Cc5ccccc5)CC4)cccc3n2C2CCNC2)c1` (centres undefined), 987 nM; under `COc1cc(NC(=O)c2c(-c3c(F)cccc3Cl)noc2C)c(OC)cc1Cl`, 861 nM.

Molecule `N=C(N)NN=Cc1ccc2c(c1)Cc1ccccc1-2` came in with an XC50 (Plasmodium falciparum, 3D7) of 586 nM. On the same count and under the same terms, as for `COc1ccc2nc(NC(N)=NC(=O)Nc3ccccc3)nc(C)c2c1`, the figure is 1280 nM; as for `COc1cc(C2Nc3ccc4ccccc4c3C3=C2C(=O)CC(C)(C)C3)ccc1Oc1ccc([N+](=O)[O-])cc1C#N` (centres undefined), 662 nM. `CCN(CC)c1nc(-c2ccccc2)cc(-c2ccccc2)c1C#N` returned an XC50 (Plasmodium falciparum, 3D7) of 450 nM.

On to `CCCC1(C)CSc2ccccc2C(c2ccccc2)N1` (centres undefined), for which the XC50 (Plasmodium falciparum, 3D7) was determined as 707 nM. Turning to `Cc1ccccc1OCCCc1c(C)nc(N)nc1N`, under “Plasmodium falciparum, 3D7”, the XC50 came to 277 nM. Same read-out and setting: as for `Nc1n[nH]c(-c2ccccc2Nc2ccnc3cc(-c4nccs4)ccc23)n1`, the figure is 1120 nM; as for `Cc1cc(C)c(O)c(-c2cc(C(=O)Nc3ccc(S(=O)(=O)N4CC(C)OC(C)C4)cc3)[nH]n2)c1` (centres undefined), 664 nM; as for `CCN1CCN(c2cc(C)c3cc(NC(=O)c4cccc(OC)c4)ccc3n2)CC1`, 799 nM.

In the case of `Cc1[nH]c(C)c(-c2ccc(-c3ccccc3Cl)nc2)c(=O)c1Cl`, where the note is “Plasmodium falciparum, 3D7”, the XC50 was determined as 217 nM. For the setting “Plasmodium falciparum, 3D7”, `N=C(N)NN=CC(=O)Nc1ccc(Br)cc1` came in with an XC50 of 884 nM. Same read-out and setting: under `CS(=O)(=O)c1ccc2c(c1)CCN(CCC1CCC(NC(=O)C(=Cc3ccc(Cl)cc3Cl)c3ccc(-c4ccccc4)cc3)CC1)CC2` (centres undefined) stands 1170 nM. Same read-out and setting: under `COc1ccc(CCCCN2C(=O)C(c3ccccc3)(c3ccccc3)N=C2N)cc1` stands 858 nM. Molecule `O=C(/C=C/c1ccc2ccccc2c1)NC1CCC(CN2CCC(c3c[nH]c4ccccc34)CC2)CC1` (centres undefined) yielded an XC50 (Plasmodium falciparum, 3D7) of 727 nM. The same measure, in the same setting: as for `COc1ccc(OC)c(NC(=O)C2c3ccccc3C(=O)N(CC(C)C)C2c2cccs2)c1` (centres undefined), the figure is 805 nM. `O[C@@H](c1cc(C(F)(F)F)nc2c(C(F)(F)F)cccc12)[C@H]1CCCCN1`: the XC50 came to 69.2 nM. The molecule also displayed an XC50 (Plasmodium falciparum, 3D7) of 73.7 nM. In turn, `Cc1[nH]c(C)c(-c2ccc(OCc3ccc(F)cc3)cc2)c(=O)c1Br` registered an XC50 (Plasmodium falciparum, 3D7) of 77.2 nM. In the case of `COc1ccc2nccc([C@@H](O)CN3CCC(NC(=O)COc4nc(SCc5ccc(F)cc5)nc5c4CCC5)CC3)c2c1`, the XC50 (Plasmodium falciparum, 3D7) worked out at 595 nM. The same measure, in the same setting: as for `COc1cc(CN2CCC(N3CCc4cc(NC(=O)c5cc(C)on5)ccc43)C2)ccc1F` (centres undefined), the figure is 607 nM; as for `N#Cc1cccc(CN2CCCN(Cc3ccc(C(=O)Nc4ccc(Cl)cc4)cc3)CC2)c1`, 882 nM; as for `Cc1ccc(CN2CCCN(Cc3cccc(NC(=O)c4ccc(-c5ccccc5)cc4)c3)CC2)cc1C`, 1250 nM. The same measure, in the same setting: under `Cc1[nH]c(C)c(-c2ccc(OCc3cc(F)cc(F)c3)nc2)c(=O)c1Cl` stands 86.8 nM; under `Cc1cc(NC(=O)c2cccs2)ccc1OC1CCN(Cc2ccc(C#N)cc2)C1` (centres undefined), 847 nM. Same read-out and setting: as for `CCNC(=O)Nc1cccc(-c2cccc(-c3nc4cccc(C)c4[nH]3)c2)c1`, the figure is 1040 nM; as for `Nc1ccc2c(N)c3ccccc3nc2c1`, 812 nM; as for `COc1ccc(-c2ccc(NC(=O)c3ccc(C#N)cc3)cc2)cc1CN1CCNCC1`, 505 nM.

Under “Plasmodium falciparum, 3D7”, `CN(C)C(=O)c1cc(CNCc2ccccc2)ccc1-c1cccc(CNCc2ccc(-c3ccccc3)cc2)c1` came in with an XC50 of 1050 nM. Same read-out and setting: as for `Cc1cccc2nc(-c3ccc(-c4ccc(NC(=O)NCc5ccccc5)cc4)s3)[nH]c12`, the figure is 768 nM; as for `c1cncc(-c2cccc(CNc3nccc(Nc4ccc(OCCN5CCOCC5)cc4)n3)c2)c1`, 1060 nM. Same read-out and setting: as for `COc1cc2nc(N3CCC(c4ccccc4)CC3)nc(NCc3ccc(=O)[nH]c3)c2cc1OC`, the figure is 755 nM. Take `Cc1cc(C(=O)Nc2ccc3c(c2)CCN3C2CCN(Cc3csc4ccccc34)C2)no1` (centres undefined): the XC50 (Plasmodium falciparum, 3D7) amounted to 119 nM. Molecule `COc1cccc(-c2cccc(NC(=O)C3CCN(Cc4ccc(O)cc4)CC3)c2)c1` returned an XC50 (Plasmodium falciparum, 3D7) of 1030 nM.

`Cc1ccc(/C=C/C(=O)N2CCC(CCN3CCC(c4c[nH]c5ccccc45)CC3)CC2)cc1C` had an XC50 (Plasmodium falciparum, 3D7) of 926 nM. Still for that read-out and setting: under `O=C1Nc2cccc3c2C1(CCCCN1CC=C(c2c[nH]c4ncccc24)CC1)CCC3` (centres undefined) stands 395 nM; under `O=C(c1ccccc1)N1CCC(CN2CCOC(c3ccccc3)(c3ccccc3)C2)CC1`, 497 nM. The same measure, in the same setting: as for `CN(Cc1cccc(C#N)c1)C1CCN(c2cc(NC(=O)c3cccc(F)c3)ccn2)CC1`, the figure is 926 nM; as for `CN(C)CCNc1cc(-c2cccnc2)nc(-c2ccncc2)n1`, 596 nM.

`c1ccc(OCCOc2ccc(Nc3ccnc4cc5ccccc5cc34)cc2)cc1`: the XC50 (Plasmodium falciparum, 3D7) turned out to be 252 nM. The same measure, in the same setting: under `CCc1cn(C)c2c(N3CCCC3=O)cc(C(=O)N[C@@H](Cc3ccccc3)[C@H](O)CNC3CCCCC3)cc12` stands 118 nM; under `CC(C)c1cn2c3c(cc(C(=O)N[C@@H](Cc4ccccc4)[C@H](O)CNC4CCCCC4)cc13)N(C)S(=O)(=O)CC2`, 30 nM. On to `CCOC(=O)c1cnc2c(C(F)(F)F)cccc2c1Nc1ccc(O)cc1`, for which, for the setting “Plasmodium falciparum, 3D7”, the XC50 came to 632 nM. The same measure, in the same setting: under `CCCCOc1cc(C)nc2ccc(NC(=O)COCC(=O)Nc3ccc4nc(C)cc(OCCCC)c4c3)cc12` stands 1000 nM; under `Cc1cccc2[nH]c(-c3cc(-c4cccc(Cl)c4)cnc3N)nc12`, 124 nM.

In the case of `CN(C)c1ccc(/C=C2\S/C(=N\c3ccccc3)N(c3ccccc3)C2=O)cc1[N+](=O)[O-]`, the XC50 (Plasmodium falciparum, 3D7) worked out at 778 nM. On the same count and under the same terms, as for `CN(C(=O)c1ccccc1)C1c2cc(C#N)ccc2OC(C)(C)C1O` (centres undefined), the figure is 654 nM; as for `O=C(Nc1cccc(OCCN2CCCC2)c1)Nc1ccc(Cl)c(Cl)c1`, 775 nM; as for `N#Cc1cc(C(=O)c2cc(Cl)ccc2O)cn(-c2cccc(C(F)(F)F)c2)c1=O`, 1130 nM. As for `CCC(CC)(CCC#N)CN(C[C@@H](O)[C@H](Cc1ccccc1)NC(=O)OC(C)(C)C)S(=O)(=O)c1ccc(OC)cc1`, where the note is “Plasmodium falciparum, 3D7”, the XC50 was determined as 1040 nM. Under “Plasmodium falciparum, 3D7”, `O=c1c2ccccc2[nH]c2cc(Cl)ccc12` came in with an XC50 of 873 nM. Same read-out and setting: as for `Cn1cnc(CCNC(=O)c2ccc(-c3cccc(-c4nc5cc(F)ccc5[nH]4)c3)cc2)c1`, the figure is 680 nM; as for `COc1cccc(OC)c1OCCCOc1c(C)nc(N)nc1N`, 459 nM; as for `CC(=O)c1ccc(N2CCN(C(=O)Nc3ccc(Cl)cc3)CC2)cc1`, 979 nM. `O=C(Nc1ccc2c(c1)CCN2C1CCN(Cc2ccc(F)cc2Cl)C1)c1ccco1` (centres undefined) gave an XC50 (Plasmodium falciparum, 3D7) of 470 nM.

With `CNC(=O)Cc1ccc(C(=O)Nc2cccc(-c3cccc(-c4nc5cc(C(F)(F)F)ccc5[nH]4)c3)c2)cc1`, the XC50 (Plasmodium falciparum, 3D7) stood at 440 nM. As to `CCCCN(C)CC#Cc1ccc2[nH]c(C)c(Cl)c(=O)c2c1`, the XC50 (Plasmodium falciparum, 3D7) amounted to 130 nM. On the same count and under the same terms, under `CCNc1c2ccc(Cl)cc2nc2ccc(OC)cc12` stands 843 nM; under `CCNc1cc(C)nc(Nc2ccc(NS(=O)(=O)c3ccccc3)cc2)n1`, 791 nM.

Regarding `COc1ccc(NC(=O)Nc2ccc(-c3cccc(-c4nc5cccc(C)c5[nH]4)c3)cc2)cc1`, the XC50 (Plasmodium falciparum, 3D7) is 142 nM.

The record behind these values is ChEMBL document CHEMBL1157539, “Thousands of chemical starting points for antimalarial lead identification” (Nature, 2010).
